According to ChEMBL document CHEMBL1201862, “PubChem BioAssay data set” (2004):
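96-well plates; 48 h exposure; 5 concentrations. Endpoints by linear interpolation between flanking doses. Not reached: highest tested concentration assigned. Here, GI50 denotes the concentration required for 50% inhibition of growth.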 The source made the active and inactive calls. No stated cut-off is given here; in the data, active = GI50 up to about 1.1 µM and inactive = higher.

Legend:
Experiment in all cases: NCI anticancer screen, dose series, 48 h
786-0 = system: 786-0
A498 = system: A498
ACHN = system: ACHN
COLO 205 = system: COLO 205
HL-60 = system: HL-60
HOP-62 = system: HOP-62
KM12 = system: KM12
MCF7 = system: MCF7
MDA-MB-231 = system: MDA-MB-231
MOLT-4 = system: MOLT-4
OVCAR-3 = system: OVCAR-3
PC-3 = system: PC-3
SF-268 = system: SF-268
SF-295 = system: SF-295
SF-539 = system: SF-539
SNB-75 = system: SNB-75
SR = system: SR
SW-620 = system: SW-620
T47D = system: T47D
UO-31 = system: UO-31

SMILES	GI50 (786-0)	GI50 (A498)	GI50 (ACHN)	GI50 (COLO 205)	GI50 (HL-60)	GI50 (HOP-62)	GI50 (KM12)	GI50 (MCF7)	GI50 (MDA-MB-231)	GI50 (MOLT-4)	GI50 (OVCAR-3)	GI50 (PC-3)	GI50 (SF-268)	GI50 (SF-295)	GI50 (SF-539)	GI50 (SNB-75)	GI50 (SR)	GI50 (SW-620)	GI50 (T47D)	GI50 (UO-31)
Oc1c(Br)cc(/C=C/c2cccc(/C=C/c3cc(Br)c(O)c(Br)c3)n2)cc1Br	14.8 µM (inactive)	8.2 µM (inactive)	6.38 µM (inactive)	14.6 µM (inactive)	2.03 µM (inactive)	31.6 µM (inactive)	5.66 µM (inactive)	15.5 µM (inactive)	14.8 µM (inactive)	3.43 µM (inactive)	14.1 µM (inactive)	7.52 µM (inactive)	15 µM (inactive)	7.87 µM (inactive)	13.7 µM (inactive)	4.34 µM (inactive)	5.15 µM (inactive)	17.7 µM (inactive)	5.89 µM (inactive)	15.1 µM (inactive)
c1c[nH]c(CN2CCOCC2)n1	> 100 µM (inactive)	> 100 µM (inactive)	> 100 µM (inactive)	> 100 µM (inactive)	> 100 µM (inactive)	> 100 µM (inactive)	> 100 µM (inactive)	> 100 µM (inactive)	> 100 µM (inactive)	> 100 µM (inactive)	> 100 µM (inactive)	> 100 µM (inactive)	> 100 µM (inactive)	> 100 µM (inactive)	> 100 µM (inactive)	> 100 µM (inactive)	> 100 µM (inactive)	> 100 µM (inactive)	> 100 µM (inactive)	> 100 µM (inactive)
Cc1ccc(S(=O)(=O)NC(CCC(=O)NN)C(=O)NN)cc1 (stereo not given)	> 100 µM (inactive)	> 100 µM (inactive)	> 100 µM (inactive)	> 100 µM (inactive)	> 100 µM (inactive)	> 100 µM (inactive)	> 100 µM (inactive)	> 100 µM (inactive)	> 100 µM (inactive)	> 100 µM (inactive)	> 100 µM (inactive)	> 100 µM (inactive)	> 100 µM (inactive)	> 100 µM (inactive)	> 100 µM (inactive)	> 100 µM (inactive)	> 100 µM (inactive)	> 100 µM (inactive)	> 100 µM (inactive)	> 100 µM (inactive)
CN(C)c1nc(N)nc(CCl)n1	22.3 µM (inactive)	27.9 µM (inactive)	15.8 µM (inactive)	29.2 µM (inactive)	19.1 µM (inactive)	17.5 µM (inactive)	28.6 µM (inactive)	40.2 µM (inactive)	27.9 µM (inactive)	18.8 µM (inactive)	17.5 µM (inactive)	74.8 µM (inactive)	27.2 µM (inactive)	30.8 µM (inactive)	26.1 µM (inactive)	0.912 µM (active)	24.9 µM (inactive)	28.3 µM (inactive)	60.4 µM (inactive)	12.4 µM (inactive)
CCOP(=O)(OCC)C(=C1C=C(C(C)(C)C)C(=O)C(C(C)(C)C)=C1)P(=O)(OCC)OCC	> 4.09 µM (inactive)	> 10 µM (inactive)	1.94 µM (inactive)	1.98 µM (inactive)	3.53 µM (inactive)	> 10 µM (inactive)	> 10 µM (inactive)	> 6.84 µM (inactive)	> 9.27 µM (inactive)	2.89 µM (inactive)	2.41 µM (inactive)	> 10 µM (inactive)	> 10 µM (inactive)	> 10 µM (inactive)	> 10 µM (inactive)	> 10 µM (inactive)	3.64 µM (inactive)	1.89 µM (inactive)	2.13 µM (inactive)	> 10 µM (inactive)
Clc1ccc(CCNC2(c3cc4ccccc4s3)CCCCC2)cc1Cl	18.1 µM (inactive)	19.1 µM (inactive)	26.2 µM (inactive)	17.8 µM (inactive)	16.7 µM (inactive)	28.2 µM (inactive)	21.8 µM (inactive)	17 µM (inactive)	21.1 µM (inactive)	13.8 µM (inactive)	20.6 µM (inactive)	43.2 µM (inactive)	53 µM (inactive)	28.7 µM (inactive)	16.9 µM (inactive)	14.2 µM (inactive)	11.9 µM (inactive)	34.7 µM (inactive)	20.2 µM (inactive)	16.6 µM (inactive)
Cc1nc2ccccc2n1CCc1nc2ccccc2s1	42.7 µM (inactive)	14.8 µM (inactive)	20 µM (inactive)	26.9 µM (inactive)	14.3 µM (inactive)	> 100 µM (inactive)	56.1 µM (inactive)	16.6 µM (inactive)	39.6 µM (inactive)	12.9 µM (inactive)	17.8 µM (inactive)	39.9 µM (inactive)	53.2 µM (inactive)	8.49 µM (inactive)	35.2 µM (inactive)	78 µM (inactive)	11.6 µM (inactive)	68.9 µM (inactive)	7.21 µM (inactive)	1.93 µM (inactive)
C=C1c2nc3ccccc3n2C=C(c2ccc(C)cc2)N1c1ccc(C)cc1	78.3 µM (inactive)	> 100 µM (inactive)	> 78 µM (inactive)	28.8 µM (inactive)	10.5 µM (inactive)	> 100 µM (inactive)	23.8 µM (inactive)	26.2 µM (inactive)	> 83.4 µM (inactive)	31.6 µM (inactive)	64.7 µM (inactive)	28.6 µM (inactive)	> 100 µM (inactive)	50.9 µM (inactive)	> 48.1 µM (inactive)	> 100 µM (inactive)	11.5 µM (inactive)	36.8 µM (inactive)	> 100 µM (inactive)	46 µM (inactive)
COC(=O)c1cc2c(cc1Cl)Sc1nnc(Nc3ccccc3)n1S2(=O)=O	4.18 µM (inactive)	5.55 µM (inactive)	1.8 µM (inactive)	6.52 µM (inactive)	2.77 µM (inactive)	2.15 µM (inactive)	2.71 µM (inactive)	2.86 µM (inactive)	3.98 µM (inactive)	2.47 µM (inactive)	1.75 µM (inactive)	3.08 µM (inactive)	2.26 µM (inactive)	3.78 µM (inactive)	2.15 µM (inactive)	5.12 µM (inactive)	2.74 µM (inactive)	3.39 µM (inactive)	1.59 µM (inactive)	2.48 µM (inactive)
CCOC(=O)C1=NN(c2ccc(C)cc2)C2(c3ccccc3)C=C(c3ccccc3)N(C)CCN12 (stereo not given)	> 100 µM (inactive)	> 100 µM (inactive)	> 100 µM (inactive)	> 100 µM (inactive)	30.7 µM (inactive)	> 100 µM (inactive)	48.5 µM (inactive)	> 100 µM (inactive)	> 100 µM (inactive)	> 100 µM (inactive)	> 100 µM (inactive)	> 100 µM (inactive)	> 100 µM (inactive)	> 100 µM (inactive)	> 100 µM (inactive)	> 100 µM (inactive)	35.2 µM (inactive)	> 100 µM (inactive)	> 100 µM (inactive)	> 100 µM (inactive)
CC(C)=CCC[C@](C)(O[C@@H]1O[C@H](CO)[C@@H](O)[C@H](O)[C@H]1O)[C@H]1CC[C@]2(C)[C@@H]1[C@H](O)C[C@@H]1[C@@]3(C)CC[C@H](O)C(C)(C)[C@@H]3[C@@H](O[C@@H]3O[C@H](CO)[C@@H](O)[C@H](O)[C@H]3O[C@@H]3O[C@@H](C)[C@H](O)[C@@H](O)[C@H]3O)C[C@]12C.CC(C)=CCC[C@](C)(O[C@@H]1O[C@H](CO)[C@@H](O)[C@H](O)[C@H]1O)[C@H]1CC[C@]2(C)[C@@H]1[C@H](O)C[C@@H]1[C@@]3(C)CC[C@H](O)C(C)(C)[C@@H]3[C@@H](O[C@@H]3O[C@H](CO)[C@@H](O)[C@H](O)[C@H]3O[C@@H]3O[C@H](CO)[C@@H](O)[C@H](O)[C@H]3O)C[C@]12C	> 75 µM (inactive)	> 75 µM (inactive)	> 75 µM (inactive)	> 75 µM (inactive)	> 75 µM (inactive)	22.9 µM (inactive)	> 75 µM (inactive)	> 75 µM (inactive)	> 75 µM (inactive)	> 75 µM (inactive)	> 75 µM (inactive)	> 75 µM (inactive)	54.3 µM (inactive)	60.3 µM (inactive)	> 75 µM (inactive)	> 75 µM (inactive)	29.2 µM (inactive)	> 75 µM (inactive)	> 75 µM (inactive)	> 75 µM (inactive)
COc1ccc(/C(Cl)=C(\C=O)c2ccc([N+](=O)[O-])cc2)cc1OC	4.29 µM (inactive)	20.5 µM (inactive)	8.83 µM (inactive)	14.2 µM (inactive)	2.7 µM (inactive)	22.7 µM (inactive)	20.4 µM (inactive)	3.72 µM (inactive)	13.8 µM (inactive)	3.05 µM (inactive)	11.5 µM (inactive)	8.71 µM (inactive)	6.73 µM (inactive)	13.4 µM (inactive)	12.5 µM (inactive)	3.62 µM (inactive)	3.03 µM (inactive)	6.12 µM (inactive)	6.9 µM (inactive)	12.2 µM (inactive)
COc1nc(C#CC2CCCCC2)nc(OC)n1	1.69 µM (inactive)	21.4 µM (inactive)	4.26 µM (inactive)	6.1 µM (inactive)	1.12 µM (inactive)	3.72 µM (inactive)	4.76 µM (inactive)	2.14 µM (inactive)	2.3 µM (inactive)	2.98 µM (inactive)	3.22 µM (inactive)	4.21 µM (inactive)	4.07 µM (inactive)	5.24 µM (inactive)	2.45 µM (inactive)	9.71 µM (inactive)	2.3 µM (inactive)	3.3 µM (inactive)	31.7 µM (inactive)	2.54 µM (inactive)
